Series [1] deals with T1, Tyrosine-protein phosphatase non-receptor type 7 (Homo sapiens, UniProt P35236).
T1 sequence (P35236 whole entry): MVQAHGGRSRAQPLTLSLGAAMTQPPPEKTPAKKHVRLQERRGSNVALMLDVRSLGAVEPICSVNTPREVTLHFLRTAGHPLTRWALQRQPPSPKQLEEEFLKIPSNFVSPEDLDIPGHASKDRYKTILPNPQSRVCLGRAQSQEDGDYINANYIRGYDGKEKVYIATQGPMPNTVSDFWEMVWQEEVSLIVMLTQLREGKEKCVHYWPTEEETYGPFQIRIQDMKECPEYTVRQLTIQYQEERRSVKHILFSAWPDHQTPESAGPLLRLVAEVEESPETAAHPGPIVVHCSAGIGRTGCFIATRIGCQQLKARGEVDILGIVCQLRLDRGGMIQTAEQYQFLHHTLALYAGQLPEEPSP
In kind it is functional.

Series [2] has as its target T2, Tyrosine-protein phosphatase non-receptor type 22 (Homo sapiens, UniProt Q9Y2R2).
T2 sequence (Q9Y2R2 whole entry): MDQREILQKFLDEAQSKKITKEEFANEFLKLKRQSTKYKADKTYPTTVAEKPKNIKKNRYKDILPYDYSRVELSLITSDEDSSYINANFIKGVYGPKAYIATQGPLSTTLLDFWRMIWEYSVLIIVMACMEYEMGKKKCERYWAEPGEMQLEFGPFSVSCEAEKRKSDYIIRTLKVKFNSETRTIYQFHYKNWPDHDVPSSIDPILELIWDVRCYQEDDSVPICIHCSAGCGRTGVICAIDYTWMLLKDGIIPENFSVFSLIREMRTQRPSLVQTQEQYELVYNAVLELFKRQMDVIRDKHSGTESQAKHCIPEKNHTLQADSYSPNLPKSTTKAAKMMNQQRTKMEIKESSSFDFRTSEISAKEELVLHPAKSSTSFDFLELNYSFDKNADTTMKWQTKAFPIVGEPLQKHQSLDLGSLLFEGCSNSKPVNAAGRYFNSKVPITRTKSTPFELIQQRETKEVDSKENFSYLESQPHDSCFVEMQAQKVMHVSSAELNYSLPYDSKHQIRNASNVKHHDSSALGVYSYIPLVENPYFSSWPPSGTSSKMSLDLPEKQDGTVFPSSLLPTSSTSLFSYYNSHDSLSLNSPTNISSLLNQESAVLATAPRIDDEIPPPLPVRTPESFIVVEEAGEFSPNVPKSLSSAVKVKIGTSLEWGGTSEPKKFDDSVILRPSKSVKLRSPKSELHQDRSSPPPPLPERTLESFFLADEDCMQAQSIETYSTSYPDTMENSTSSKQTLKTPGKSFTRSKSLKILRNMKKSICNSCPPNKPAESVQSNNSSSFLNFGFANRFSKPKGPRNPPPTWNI
In kind it is functional.

In series [3] the target is T2, Tyrosine-protein phosphatase non-receptor type 22. In kind it is functional. This is another data set of the same source.
The target of a further series is Beta-galactosidase (Escherichia coli, UniProt Q8VNN2). The series is described as follows: PubChem AID 485352. In kind it is functional.
Sequence of Beta-galactosidase (Q8VNN2 whole entry): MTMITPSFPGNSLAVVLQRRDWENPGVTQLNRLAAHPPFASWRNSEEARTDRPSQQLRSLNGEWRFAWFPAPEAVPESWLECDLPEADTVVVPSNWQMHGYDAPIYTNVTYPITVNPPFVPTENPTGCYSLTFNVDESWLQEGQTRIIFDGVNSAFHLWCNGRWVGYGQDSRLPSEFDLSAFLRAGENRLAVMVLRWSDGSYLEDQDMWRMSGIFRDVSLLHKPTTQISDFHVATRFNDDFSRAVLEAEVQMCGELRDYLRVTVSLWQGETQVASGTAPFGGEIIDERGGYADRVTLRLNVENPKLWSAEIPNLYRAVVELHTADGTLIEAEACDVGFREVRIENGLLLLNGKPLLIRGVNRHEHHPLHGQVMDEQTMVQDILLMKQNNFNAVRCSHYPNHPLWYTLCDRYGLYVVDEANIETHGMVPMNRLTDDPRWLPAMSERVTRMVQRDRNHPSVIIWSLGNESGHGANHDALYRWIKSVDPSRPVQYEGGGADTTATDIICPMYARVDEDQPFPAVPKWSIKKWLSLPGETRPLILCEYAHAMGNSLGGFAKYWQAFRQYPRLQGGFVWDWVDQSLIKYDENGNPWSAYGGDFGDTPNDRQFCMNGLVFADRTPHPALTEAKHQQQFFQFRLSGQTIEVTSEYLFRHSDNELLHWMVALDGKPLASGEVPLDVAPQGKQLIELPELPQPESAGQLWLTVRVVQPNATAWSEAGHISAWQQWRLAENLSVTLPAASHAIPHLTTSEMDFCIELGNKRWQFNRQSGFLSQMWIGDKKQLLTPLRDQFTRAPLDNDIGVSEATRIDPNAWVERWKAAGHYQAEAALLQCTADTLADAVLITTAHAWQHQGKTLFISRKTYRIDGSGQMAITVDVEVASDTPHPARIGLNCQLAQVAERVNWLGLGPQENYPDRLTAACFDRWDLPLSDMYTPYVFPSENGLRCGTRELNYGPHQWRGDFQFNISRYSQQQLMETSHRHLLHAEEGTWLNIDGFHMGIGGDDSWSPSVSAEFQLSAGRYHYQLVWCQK
The target of series [4] is T3, Type-1 angiotensin II receptor (Homo sapiens, UniProt P30556).
T3 sequence (P30556 whole entry): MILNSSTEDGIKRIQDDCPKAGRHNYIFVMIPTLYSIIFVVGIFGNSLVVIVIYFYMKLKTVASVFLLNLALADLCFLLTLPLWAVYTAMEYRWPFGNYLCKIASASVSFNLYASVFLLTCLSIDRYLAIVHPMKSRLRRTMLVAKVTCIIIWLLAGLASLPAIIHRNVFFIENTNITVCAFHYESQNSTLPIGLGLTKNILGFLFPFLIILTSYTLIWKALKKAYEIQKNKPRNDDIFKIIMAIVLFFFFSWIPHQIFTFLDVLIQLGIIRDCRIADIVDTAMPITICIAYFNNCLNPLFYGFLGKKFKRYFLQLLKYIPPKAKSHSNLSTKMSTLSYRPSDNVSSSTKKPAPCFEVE
Kind of series: antagonism of angiotensin II type 1 receptor – cell-based, uHTS hits, selectivity assay for APJ receptor antagonist project, dose response (AID 463214).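 Also: antagonist potency against angiotensin II stimulated AT1 response.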 In kind it is functional.

For another series, the target named is T4, Cytochrome P450 1A2 (Homo sapiens, UniProt P05177).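 Also: PubChem cytochrome P450 panel assay, CYP1A2 panel member.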
T4 sequence (P05177 whole entry): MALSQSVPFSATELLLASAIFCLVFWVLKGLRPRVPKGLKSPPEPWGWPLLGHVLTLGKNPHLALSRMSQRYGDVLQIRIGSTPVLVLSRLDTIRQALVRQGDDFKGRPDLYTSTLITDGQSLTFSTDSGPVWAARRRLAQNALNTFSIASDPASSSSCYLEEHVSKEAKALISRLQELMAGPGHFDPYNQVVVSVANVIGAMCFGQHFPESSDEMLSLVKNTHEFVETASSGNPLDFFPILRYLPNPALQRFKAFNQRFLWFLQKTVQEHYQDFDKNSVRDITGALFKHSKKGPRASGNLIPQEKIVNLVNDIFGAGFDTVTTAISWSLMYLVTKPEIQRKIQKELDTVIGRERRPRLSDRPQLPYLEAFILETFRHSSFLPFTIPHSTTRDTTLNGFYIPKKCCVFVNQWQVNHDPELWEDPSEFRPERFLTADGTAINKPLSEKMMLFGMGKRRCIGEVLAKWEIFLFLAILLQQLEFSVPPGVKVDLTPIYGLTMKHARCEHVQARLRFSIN

The next series concerns the target Cytochrome P450 2C9 (Homo sapiens, UniProt P11712).
Series [5] concerns the target DNA dC->dU-editing enzyme APOBEC-3A (Homo sapiens, UniProt P31941). Kind of series: Dose Response confirmation of small molecule APOBEC3A DNA Deaminase Inhibitors via a fluorescence-based single-stranded DNA deaminase assay. [Related pubchem assays (depositor defined):AID493011, AID493024]. In kind it is functional.
For series [6], the target named is DNA dC->dU-editing enzyme APOBEC-3G (Homo sapiens, UniProt Q9HC16). In kind it is functional.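 Also: Dose-response counterscreen measuring inhibition of APOBEC3G DNA deaminase activity, run while confirming APOBEC3A inhibitors.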
Sequence of DNA dC->dU-editing enzyme APOBEC-3G (Q9HC16 whole entry, the tested form may be a part): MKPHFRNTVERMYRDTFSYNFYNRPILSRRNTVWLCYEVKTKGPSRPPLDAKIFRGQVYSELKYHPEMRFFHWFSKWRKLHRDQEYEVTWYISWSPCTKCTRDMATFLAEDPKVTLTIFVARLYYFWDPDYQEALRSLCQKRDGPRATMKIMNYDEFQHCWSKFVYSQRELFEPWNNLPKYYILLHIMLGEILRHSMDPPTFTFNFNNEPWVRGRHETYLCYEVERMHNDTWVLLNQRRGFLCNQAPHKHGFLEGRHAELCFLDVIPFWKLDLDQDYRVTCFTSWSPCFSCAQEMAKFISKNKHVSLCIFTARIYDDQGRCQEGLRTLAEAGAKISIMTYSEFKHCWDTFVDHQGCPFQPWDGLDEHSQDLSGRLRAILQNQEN
Series [7] addresses T5, Carboxy-terminal domain RNA polymerase II polypeptide A small phosphatase 1 (Homo sapiens, UniProt Q9GZU7).
T5 sequence (Q9GZU7 whole entry): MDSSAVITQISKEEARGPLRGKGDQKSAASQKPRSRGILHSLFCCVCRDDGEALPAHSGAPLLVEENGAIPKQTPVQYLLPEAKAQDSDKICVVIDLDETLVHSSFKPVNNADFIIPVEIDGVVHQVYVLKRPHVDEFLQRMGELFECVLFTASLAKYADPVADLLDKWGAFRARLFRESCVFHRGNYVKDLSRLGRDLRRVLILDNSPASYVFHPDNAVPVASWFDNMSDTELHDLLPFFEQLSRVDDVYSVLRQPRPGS
Kind of series: CTDSP1 inhibitors, concentration-response, biochemical, absorbance readout, ultra-high-throughput screen actives (AID 540297). In kind it is functional.

Series [8] concerns the target Voltage-dependent T-type calcium channel subunit alpha-1H (Homo sapiens, UniProt O95180). In kind it is functional.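 Also: channel activity triggered by adding a high calcium stimulation buffer.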
Another series deals with Tumor necrosis factor (Homo sapiens, UniProt P01375). The series is described as follows: analog potency on TNFa NF-kB signaling – cell-based, revised, SAR follow-up (AID 2337). It counts as functional.
Sequence of Tumor necrosis factor (P01375 whole entry): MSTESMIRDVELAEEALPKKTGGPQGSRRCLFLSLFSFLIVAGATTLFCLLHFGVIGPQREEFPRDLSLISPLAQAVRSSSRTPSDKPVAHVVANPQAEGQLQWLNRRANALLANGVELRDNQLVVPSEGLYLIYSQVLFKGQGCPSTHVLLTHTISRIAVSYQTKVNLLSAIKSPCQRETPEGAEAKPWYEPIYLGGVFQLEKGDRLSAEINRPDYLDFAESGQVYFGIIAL
The subject of another series is HEK293. Kind of series: cells. The conditions noted are these: Homo sapiens.

The structures appear in SMILES notation. The source made the active and inactive calls. Rule as the data show it, for most assays here: actives have a measured IC50 and inactives only a lower limit. Bounds are passed on as bounds.

Sequence of Cytochrome P450 2C9 (P11712 whole entry): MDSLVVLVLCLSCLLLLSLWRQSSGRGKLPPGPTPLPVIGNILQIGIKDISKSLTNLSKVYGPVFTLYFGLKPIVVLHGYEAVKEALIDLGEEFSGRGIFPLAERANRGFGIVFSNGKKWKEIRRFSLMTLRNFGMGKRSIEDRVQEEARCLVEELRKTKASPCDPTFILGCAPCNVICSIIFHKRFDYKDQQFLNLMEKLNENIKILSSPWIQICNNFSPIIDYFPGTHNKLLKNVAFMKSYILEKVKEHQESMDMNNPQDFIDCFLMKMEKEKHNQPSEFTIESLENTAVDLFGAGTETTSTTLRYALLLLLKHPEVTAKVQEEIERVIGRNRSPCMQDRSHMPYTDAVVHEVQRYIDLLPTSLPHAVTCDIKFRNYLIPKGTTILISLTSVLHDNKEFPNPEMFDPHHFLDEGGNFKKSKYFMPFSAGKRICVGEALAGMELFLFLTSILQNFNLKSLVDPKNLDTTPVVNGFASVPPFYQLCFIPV
Sequence of DNA dC->dU-editing enzyme APOBEC-3A (P31941 whole entry): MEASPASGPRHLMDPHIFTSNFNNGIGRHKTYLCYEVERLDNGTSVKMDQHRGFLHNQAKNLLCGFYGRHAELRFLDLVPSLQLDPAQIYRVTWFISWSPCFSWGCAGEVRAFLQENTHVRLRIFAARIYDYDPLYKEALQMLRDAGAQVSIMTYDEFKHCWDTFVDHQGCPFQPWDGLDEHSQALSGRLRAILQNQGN
Sequence of Voltage-dependent T-type calcium channel subunit alpha-1H (O95180 whole entry): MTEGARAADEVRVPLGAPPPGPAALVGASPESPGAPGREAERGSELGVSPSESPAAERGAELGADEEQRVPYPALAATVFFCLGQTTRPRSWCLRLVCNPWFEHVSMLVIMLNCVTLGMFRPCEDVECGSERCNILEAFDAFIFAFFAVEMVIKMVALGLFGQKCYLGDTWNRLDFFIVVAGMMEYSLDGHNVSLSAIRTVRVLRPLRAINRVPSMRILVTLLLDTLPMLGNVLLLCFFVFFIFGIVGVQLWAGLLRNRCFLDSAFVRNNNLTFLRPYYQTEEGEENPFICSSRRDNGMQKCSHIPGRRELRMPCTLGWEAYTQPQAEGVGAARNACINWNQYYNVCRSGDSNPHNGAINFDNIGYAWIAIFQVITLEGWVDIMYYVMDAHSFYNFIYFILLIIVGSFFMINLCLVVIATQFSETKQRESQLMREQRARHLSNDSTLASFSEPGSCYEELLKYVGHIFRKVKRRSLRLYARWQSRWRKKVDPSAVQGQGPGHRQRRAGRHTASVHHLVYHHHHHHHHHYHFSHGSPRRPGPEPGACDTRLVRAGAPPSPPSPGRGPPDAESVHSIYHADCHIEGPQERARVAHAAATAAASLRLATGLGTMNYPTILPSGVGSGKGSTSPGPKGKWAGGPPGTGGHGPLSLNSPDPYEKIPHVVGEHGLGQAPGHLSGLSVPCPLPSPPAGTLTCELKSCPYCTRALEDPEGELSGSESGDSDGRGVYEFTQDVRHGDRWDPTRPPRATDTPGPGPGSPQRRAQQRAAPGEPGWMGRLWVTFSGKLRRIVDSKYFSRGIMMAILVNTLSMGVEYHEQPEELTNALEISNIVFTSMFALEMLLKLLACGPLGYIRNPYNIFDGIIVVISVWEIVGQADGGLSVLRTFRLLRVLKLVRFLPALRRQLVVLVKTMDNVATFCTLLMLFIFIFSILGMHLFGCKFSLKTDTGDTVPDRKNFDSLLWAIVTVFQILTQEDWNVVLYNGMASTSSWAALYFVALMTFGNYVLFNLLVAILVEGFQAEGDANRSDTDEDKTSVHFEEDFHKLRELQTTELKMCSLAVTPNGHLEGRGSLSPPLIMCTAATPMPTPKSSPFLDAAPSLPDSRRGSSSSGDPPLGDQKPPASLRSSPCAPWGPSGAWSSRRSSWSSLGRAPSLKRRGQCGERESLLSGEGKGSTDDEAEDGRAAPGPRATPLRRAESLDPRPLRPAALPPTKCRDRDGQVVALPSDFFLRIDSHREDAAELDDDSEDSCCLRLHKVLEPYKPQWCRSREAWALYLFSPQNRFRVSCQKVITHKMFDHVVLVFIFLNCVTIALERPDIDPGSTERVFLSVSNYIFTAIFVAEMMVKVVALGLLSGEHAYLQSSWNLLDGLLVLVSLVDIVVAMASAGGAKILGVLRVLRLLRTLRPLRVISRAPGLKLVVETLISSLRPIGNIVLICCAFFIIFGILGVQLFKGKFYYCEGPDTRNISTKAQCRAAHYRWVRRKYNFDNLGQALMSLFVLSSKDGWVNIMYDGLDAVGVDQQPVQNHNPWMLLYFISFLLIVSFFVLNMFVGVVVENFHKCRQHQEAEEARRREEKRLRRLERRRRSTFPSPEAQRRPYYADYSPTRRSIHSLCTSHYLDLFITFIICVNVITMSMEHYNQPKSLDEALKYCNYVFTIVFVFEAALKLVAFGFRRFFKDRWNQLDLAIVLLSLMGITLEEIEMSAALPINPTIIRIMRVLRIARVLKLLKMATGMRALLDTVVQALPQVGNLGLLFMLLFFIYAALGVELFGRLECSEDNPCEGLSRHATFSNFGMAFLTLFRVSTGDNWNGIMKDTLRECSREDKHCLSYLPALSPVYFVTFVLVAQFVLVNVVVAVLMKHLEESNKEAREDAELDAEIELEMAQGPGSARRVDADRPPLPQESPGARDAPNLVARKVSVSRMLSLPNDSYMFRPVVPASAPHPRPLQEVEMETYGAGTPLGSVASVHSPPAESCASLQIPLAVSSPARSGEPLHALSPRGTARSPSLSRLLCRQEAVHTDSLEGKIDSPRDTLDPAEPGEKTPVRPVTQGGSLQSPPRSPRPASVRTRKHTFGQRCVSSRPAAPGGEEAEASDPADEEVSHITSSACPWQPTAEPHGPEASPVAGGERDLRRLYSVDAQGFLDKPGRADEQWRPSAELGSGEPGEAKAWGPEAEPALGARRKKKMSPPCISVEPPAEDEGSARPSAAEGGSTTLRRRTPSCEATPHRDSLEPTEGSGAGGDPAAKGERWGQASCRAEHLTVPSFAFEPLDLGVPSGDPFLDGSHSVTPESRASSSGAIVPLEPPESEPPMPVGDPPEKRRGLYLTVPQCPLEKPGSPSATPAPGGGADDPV

In general, IC50 refers to the point on the concentration scale where inhibition reaches its midpoint. Turning to `Cc1ccc(NC(=O)COC(=O)c2cc(-c3cccs3)nn2-c2ccccc2)cc1[N+](=O)[O-]`, the IC50 in [1], in series [2] and in series [3] was > 79.4 µM (inactive) throughout.
For `Cc1ccc(C)c(CN2C(=O)COc3ccc(C(=O)c4ccccc4C(=O)O)cc32)c1`, the IC50 in series [1], in [2] and in series [3] was > 79.4 µM (inactive) throughout.
On to `CN(C)S(=O)(=O)N1CCN(S(=O)(=O)c2ccc3ccccc3c2)CC1`, for which the IC50 in [1], in series [2] and in [3] was > 79.4 µM (inactive) throughout.
As usually defined, the EC50 is the concentration at which the effect is half-maximal. As to `Cc1ccc2nc(C)cc(C(=O)OCC(=O)c3ccc(Cl)c([N+](=O)[O-])c3)c2c1`, the EC50 at Beta-galactosidase is > 40 µM (inactive). Besides, the IC50 in [4] was 13.2 µM (active).
By AC50 is commonly meant the concentration at which the activity in the assay is half-maximal. In the case of `Cc1cc(C)cc(-n2nnnc2SCC(=O)Nc2nc(-c3ccc(Cl)cc3)cs2)c1`, the results for the AC50 at Cytochrome P450 1A2 and on Cytochrome P450 2C9 were 7.08 µM (inconclusive) and “inconclusive”, respectively.
As to `Cc1cccc(NC2=c3cccc(Cl)c3=NC2=O)c1`, the EC50 at Beta-galactosidase was > 40 µM (inactive). Besides, the IC50 in series [4] is given as > 40 µM (not active).
With `C[N+]1(C2CCC3CCCC2C3O)CCCCC1` (centres undefined), the IC50 was 2.42 µM (active) in series [5], 2.69 µM (active) in [6] and 6.61 µM (active) in series [7].
Turning to `CCN(CC)c1ccc(/C=C/c2nc3ccccc3s2)cc1`, in [8], the EC50 is 6.85 µM (active). At Cytochrome P450 2C9, the concentration at half-maximal activity (AC50) result is “inconclusive”.
Consider `CCn1cc(Br)c(C(=O)NC(=S)Nc2ccc(C(=O)OC)cc2)n1`, for which the IC50 in [1], in series [2] and in series [3] was > 79.4 µM (inactive) throughout.
Consider `Nc1c(N2CCCC2)c2ccccc2oc1=O`, for which, at Beta-galactosidase, the EC50 was > 40 µM (inactive). The half-inhibitory concentration (IC50) in series [4] was 13.7 µM (active).
For the compound `CC(=O)N1c2ccc(S(=O)(=O)N3CCN(c4ccc([N+](=O)[O-])cc4)CC3)cc2CC1C` (centres undefined), the IC50 was 3.27 µM (active) on Tumor necrosis factor and 14.3 µM (active) with HEK293.
Consider `O=C(CO)N/N=C/c1ccccc1F`, for which the results for the AC50 at Cytochrome P450 1A2 and on Cytochrome P450 2C9 were 25.1 µM (inconclusive) and “inconclusive”, respectively.
